These results are taken from patent US20260021147A1, “COMPOSITIONS AND METHODS FOR TREATING INFLAMMATORY DISEASE” (The Regents of the University of Michigan, priority 2022, published 2026).

A short description of series [1]: Carbohydrates analysis of mouse feces by IC-MS. The series is classed as in vivo. The settings on record: allogeneic mice, day 18.
Description: To determine the relative abundance of carbohydrates in mouse feces samples, extracts were prepared and analyzed by ultra-HRMS. Fecal pellets were homogenized with a Precellys Tissue Homogenizer. Metabolites were extracted using 1 mL ice-cold 80/20 (v/v) methanol/water. Extracts were centrifuged at 17,000 g for 5 min at 4° C., and supernatants were transferred to clean tubes, followed by evaporation to dryness under nitrogen. Dried extracts were reconstituted in deionized water, and 5 μL was injected for analysis by IC-MS. IC mobile phase A (MPA; weak) was water, and mobile phase B (MPB; strong) was water containing 100 mM KOH. A Thermo Scientific Dionex ICS-5000+ system included a Thermo CarboPac PA-20-Fast column (4 μm particle size, 100×2 mm) with column compartment kept at 30° C. The autosampler tray was chilled to 4° C. The mobile phase flow rate was 200 μL/min, and the gradient elution program was: 0-0.5 min, 1% MPB; 0.5-10 min, 1-5% MPB; 10-15 min, 5-95% MPB; 15-20 min, 95% MPB; 20.5-25, 95-1% MPB. The total run time was 25 min. To assist the desolvation for better sensitivity, methanol was delivered by an external pump and combined with the eluent via a low dead volume mixing tee. Data were acquired using a Thermo Orbitrap Fusion Tribrid Mass Spectrometer under ESI negative ionization mode at a resolution of 240,000. […]
Series [2] relates to intestinal microbiota. In words: Fecal microbiome of 44 allo-HSCT patients, pre-HSCT versus day 14. The series is classed as in vivo, human. The settings on record: pre-HSCT vs day 14, paired analysis. Here is the method: Fecal samples which were collected from patients and mice and colonic mucosal samples, which were collected from mice were weighed before DNA isolation. In brief, genomic DNA was isolated using the QIAamp DNA mini kit (51306, Qiagen) according to the manufacturer's protocol that was modified to include an intensive bead-beating lysis step. The V4 region of 16S rRNA gene was amplified by PCR from 100 ng of each of extracted and purified genomic DNA using 515 forward and 806 reverse primer pairs (Caporaso et al., 2012). The quality and quantity of the barcoded amplicons were assessed on an Agilent 4200 TapeStation system (Agilent) and Qubit Fluorometer (Thermo Fisher Scientific), and libraries were prepared after pooling at equimolar ratios. […]
Sequencing data from paired-end reads were de-multiplexed using QIIME 2 (Caporaso et al., 2010). Merging of paired-end reads, dereplicating, and length filtering was performed using VSEARCH 2.17.1 (Rognes et al., 2016). […] Weighted UniFrac distances (Lozupone et al., 2011) were determined using QIIME 2, visualized using principal coordinate analysis, and evaluated for statistical significance using permutational multivariate analysis of variance (PERMANOVA) testing. […] Paired samples were analyzed using the Wilcoxon signed rank test with adjustment for multiple comparisons.

Series [3] deals with intestinal microbiota. Nature of the series: Quantification of fecal bacterial density by 16S rRNA gene qPCR. The series is classed as in vivo, mice. The note with it: 0.625 g/L meropenem in drinking water. The procedure: Genomic DNA was isolated from stool as described above. qPCR was performed as previously described (Yang et al., 2015). In brief, 16S rRNA gene sequences were amplified from total fecal DNA using the primers 926F (5′-[…]-3′) and 1062R (5′-[…]-3′). Real-time PCR was carried out in 96-well optical plates on QuantStudio Flex 6 RT PCR (Thermo Fisher) and KAPA SYBR FAST Master Mix (Roche). The PCR conditions included one initial denaturing step of 10 min at 95° C. and 40 cycles of 95° C. for 20 sec and 60° C. for 1 min. Melting-curve analysis was performed after amplification. To determine bacterial density, a plasmid with a 16S rRNA gene of a murine Blautia isolate was generated in the pCR4 backbone and used as a standard.
(Quantitative PCR measures a nucleic acid by following its amplification.)

The nature of series [4]: Meropenem concentration in stool during drinking water administration. The series is classed as in vivo. The note with it: 48 hours after starting meropenem treatment, normal SPF mice. Here is the method:
(§1) In a murine model with a mucin-deficient mutate strain of BT, piperacillin/tazobactam was given at a concentration of 3.2 g/L in combination with vancomycin and metronidazole dosed 1.5 mg daily by oral gavage from days −16 to −12 relative to transplant.
To further explore the relationship between meropenem and intestinal GvHD, the effects of meropenem on GvHD was examined in a mouse model of allo-HSCT. A method of administering meropenem to mice that mimicked the effects of meropenem on the intestinal microbiome of patients was developed. Meropenem concentrations in the cecal lumen of mice were quantified 4, 8, 24, 48 and 96 hours after subcutaneous injection. […] Drinking water was then evaluated as a means of continuously administering meropenem to mice, using bacterial density quantified by 16S ribosomal RNA (16S rRNA) gene quantitative PCR (qPCR) to gauge reductions of the intestinal microbiota.

Series [5] can be described thus: Short chain fatty acids profiling of mouse feces by IC-MS. The series is classed as in vivo, mice. The note with it: meropenem-treated allo-HSCT mice, day 18. Here is the method:
To determine the relative abundance of short chain fatty acids in mouse feces samples, extracts were prepared and analyzed by ultra-high resolution mass spectrometry (HRMS). Fecal pellets were homogenized with a Precellys Tissue Homogenizer. Metabolites were extracted using 1 mL ice-cold 0.1% Ammonium hydroxide in 80/20 (v/v) methanol/water. Extracts were centrifuged at 17,000 g for 5 min at 4° C., and supernatants were transferred to clean tubes, followed by evaporation to dryness under nitrogen. Dried extracts were reconstituted in deionized water, and 5 μL was injected for analysis by IC-MS. IC mobile phase A (MPA; weak) was water, and mobile phase B (MPB; strong) was water containing 100 mM KOH. A Thermo Scientific Dionex ICS-5000+ system included a Thermo IonPac AS11 column (4 μm particle size, 250×2 mm) with column compartment kept at 30° C. The autosampler tray was chilled to 4° C. The mobile phase flow rate was 360 μL/min, and the gradient elution program was: 0-5 min, 1% MPB; 5-25 min, 1-35% MPB; 25-39 min, 35-99% MPB; 39-49 min, 99% MPB; 49-50, 99-1% MPB. The total run time was 50 min. To assist the desolvation for better sensitivity, methanol was delivered by an external pump and combined with the eluent via a low dead volume mixing tee. Data were acquired using a Thermo Orbitrap Fusion Tribrid Mass Spectrometer under ESI negative ionization mode at a resolution of 240,000. […]

Series [6] deals with MLNs. In words: Microbiologic analysis of bacterial translocation to mesenteric lymph nodes. The series is classed as in vivo. The note with it: allogeneic mice, day 18. The procedure:
Mesenteric lymph nodes (MLNs) were harvested from mice and homogenized in PBS and cultured anaerobically on BHI plates containing yeast extract and 5% sterilized rumen fluid (Fisher Scientific) and Columbia blood agar plates (BD) for 4 days at 37° C. Colony-forming units (CFUs) were counted and adjusted per organ. Bacteria were identified by MALDI Biotyper.

Series [7] relates to allogeneic mice (B6D2F1 recipients of B6 donor cells). In words: Murine GvHD model (allo-HSCT): survival and GvHD histology. The format is in vivo. Here is the method:
as §1
D-(+)-xylose (X3877, Sigma-Aldrich) or D-(+)-glucose (G8270, Sigma-Aldrich) was dissolved in phosphate buffer pH 8.0 with meropenem or in water without meropenem and given at a concentration of 0.5% from days 13 to 28 after allo-HSCT.
Mice were transplanted as previously described (Hayase et al., 2017).
Pathology scores were quantified by a blinded pathologist. […] Sections were imaged using an Aperio AT2.

Entries after “also recorded” stand apart in the source; their conditions may differ.

Turning to `C[C@@H](O)[C@H]1C(=O)N2C(C(=O)O)=C(S[C@@H]3CN[C@H](C(=O)N(C)C)C3)[C@H](C)[C@H]12` [meropenem], the “levels of luminal monosaccharides in the colon” value in series [1] was “significantly lower concentrations of arabinose and xylose; also recorded: decreased levels of xylose”. The “change of genus Bacteroides from baseline” value in series [2] is “significant expansion of bacteria from the genus Bacteroides”. Further, the “reduction in fecal bacterial density” value in series [3] is reported as “one-log reduction”. Besides, the “meropenem concentration in stool” value in series [4] was 0.11 ± 0.07 µg/g. For the same compound, the “fecal levels of SCFAs” value in series [5] was “reduced fecal levels of SCFAs”. In series [6], the “bacterial loads in MLNs” value was “Higher bacterial loads”. For the same compound, the “GvHD histological scores in the colon” value in series [7] (meropenem days 3 to 15, day 18, vs control allogeneic mice) is “significantly higher GvHD histological scores in the colon”. For the same compound, the overall survival entry in series [7] (meropenem in drinking water days 3 to 15, vs control allogeneic mice) is “significantly worsened survival”.
